This is an account of results in patent US6407288B1, “Naphthylsalicylanilides as antimicrobial and antiinflammatory agents” (The Research Foundation of State University of New York, priority 2000, dated 2002).

One test concerns S. species R. Briefly: Staphylococcus MIC. The format is cell-based, staphylococcus species R. The settings on record: for MIC: Staphylococcus, second Table 5 (Example 5), strain 00-045-1209. The protocol:
The MIC's for the compounds were determined by a modified microdilution tube dilution method described in “Methods for Dilution Antimicrobial Susceptibility Tests for Bacteria that Grow Aerobically” (National Committee for Clinical Laboratory Standards Approved Standards, 1997, NCCLS document M7-A4). In general the modifications were made because of the unique growth requirements for the fastidious oral organisms and for those bacteria that require anaerobic conditions. Reference is also made to “Methods for Antimicrobial Susceptibility of Anaerobic Bacteria” (National Committee for Clinical Laboratory Standards Approved Standards, 1997, NCCLS document M11-A4).
Briefly, the methods were as follows. Cultures were grown for 18-24hrs (aerobic bacteria) or 48-72 hrs (anaerobic bacteria) in the appropriate medium. For aerobic bacteria full strength brain heart infusion medium (BHI, Difco) was used. For anaerobic bacteria, half strength BHI (18.5 g/L) was supplemented by adding yeast extract (10 g/L), hemin (0.29 mL of a stock solution containing 0.1 g/200 mL dH2O) and menadione (15 mL of a stock solution containing 0.15 mL in 30 mL 95% EtOH) was used. Initial cultures were diluted to approximately 1×10^8 CFU/mL for use as an inoculum. Each assay received 10 μL of the inoculum. The drugs were prepared from a stock solution contained in dimethyl sulfoxide (DMSO) and diluted into the culture medium. Final concentrations of the drugs ranged from 50 to 0.05 μg/assay. The tests were run in duplicate and were incubated appropriately with regard to oxygen requirements for 24 to 48 hrs as required. Anaerobic incubation was an atmosphere of 5% CO2, 10% H2, with the balance N2. The lowest concentration of an antimicrobial agent at which no visible growth is noted was referred to as the MIC.
This embodiment describes the sensitivity of various staphylococcus strains to the compounds of the present invention. The staphylococcus species R is a strain 00-045-1209 from the Children's Hospital in Buffalo. It was isolated from the peritoneal cavity (fluid culture) of an individual. It was coagulase negative. The sensitivity of this strain was tested agaisnt several known antibiotics.

The test system of another test is S. mutans. As to the kind of experiment: MIC microdilution, gram positive. The following applies: Streptococcus mutans; Table 1, Gram Positive. The format is cell-based, Streptococcus mutans. Summed up: (§1)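 Modified NCCLS broth microdilution: aerobes in full-strength BHI, anaerobes in half-strength BHI with yeast extract, hemin and menadione, each well given 10 µL of a ~1×10^8 CFU/mL inoculum. Drugs ranged 50–0.05 µg/assay, run in duplicate, incubated 24–48 h, anaerobically under 5% CO2/10% H2/N2 where needed. MIC was the lowest concentration with no visible growth.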
A general note: In broth dilution the organism is exposed to a series of concentrations in liquid medium.

The test system of the next test is B. fragilis. As to the kind of experiment: MIC microdilution, gram negative. The format is cell-based, Bacteroides fraglis. The settings on record: for MIC: Bacteroides fragilis, Table 3, Gram Negative; for MIC B. fragilis: Table 3 printed a second time, Gram Negative. How it is done: The MIC's for the compounds were determined by a modified microdilution tube dilution method described in “Methods for Dilution Antimicrobial Susceptibility Tests for Bacteria that Grow Aerobically” (National Committee for Clinical Laboratory Standards Approved Standards, 1997, NCCLS document M7-A4). In general the modifications were made because of the unique growth requirements for the fastidious oral organisms and for those bacteria that require anaerobic conditions. Reference is also made to “Methods for Antimicrobial Susceptibility of Anaerobic Bacteria” (National Committee for Clinical Laboratory Standards Approved Standards, 1997, NCCLS document M11-A4). Briefly, the methods were as follows. Cultures were grown for 18-24hrs (aerobic bacteria) or 48-72 hrs (anaerobic bacteria) in the appropriate medium. For aerobic bacteria full strength brain heart infusion medium (BHI, Difco) was used. For anaerobic bacteria, half strength BHI (18.5 g/L) was supplemented by adding yeast extract (10 g/L), hemin (0.29 mL of a stock solution containing 0.1 g/200 mL dH2O) and menadione (15 mL of a stock solution containing 0.15 mL in 30 mL 95% EtOH) was used. Initial cultures were diluted to approximately 1×10^8 CFU/mL for use as an inoculum. Each assay received 10 μL of the inoculum. The drugs were prepared from a stock solution contained in dimethyl sulfoxide (DMSO) and diluted into the culture medium. Final concentrations of the drugs ranged from 50 to 0.05 μg/assay. The tests were run in duplicate and were incubated appropriately with regard to oxygen requirements for 24 to 48 hrs as required. Anaerobic incubation was an atmosphere of 5% CO2, 10% H2, with the balance N2. The lowest concentration of an antimicrobial agent at which no visible growth is noted was referred to as the MIC. […] The method used was the same as described in Example 1.

Another test concerns M. luteus. As to the kind of experiment: MIC microdilution, gram positive. The format is cell-based, Micrococcus luteus. The following applies: Micrococcus luteus; Table 2, Gram Positive. How it is done: (§2) The MIC's for the compounds were determined by a modified microdilution tube dilution method described in “Methods for Dilution Antimicrobial Susceptibility Tests for Bacteria that Grow Aerobically” (National Committee for Clinical Laboratory Standards Approved Standards, 1997, NCCLS document M7-A4). In general the modifications were made because of the unique growth requirements for the fastidious oral organisms and for those bacteria that require anaerobic conditions. Reference is also made to “Methods for Antimicrobial Susceptibility of Anaerobic Bacteria” (National Committee for Clinical Laboratory Standards Approved Standards, 1997, NCCLS document M11-A4). Briefly, the methods were as follows. Cultures were grown for 18-24hrs (aerobic bacteria) or 48-72 hrs (anaerobic bacteria) in the appropriate medium. For aerobic bacteria full strength brain heart infusion medium (BHI, Difco) was used. For anaerobic bacteria, half strength BHI (18.5 g/L) was supplemented by adding yeast extract (10 g/L), hemin (0.29 mL of a stock solution containing 0.1 g/200 mL dH2O) and menadione (15 mL of a stock solution containing 0.15 mL in 30 mL 95% EtOH) was used. Initial cultures were diluted to approximately 1×10^8 CFU/mL for use as an inoculum. Each assay received 10 μL of the inoculum. The drugs were prepared from a stock solution contained in dimethyl sulfoxide (DMSO) and diluted into the culture medium. Final concentrations of the drugs ranged from 50 to 0.05 μg/assay. The tests were run in duplicate and were incubated appropriately with regard to oxygen requirements for 24 to 48 hrs as required. Anaerobic incubation was an atmosphere of 5% CO2, 10% H2, with the balance N2. The lowest concentration of an antimicrobial agent at which no visible growth is noted was referred to as the MIC.

The subject of another test is S. sanguis. Briefly: MIC microdilution, gram positive. The format is cell-based, Streptococcus sanguis. The following applies: Streptococcus; Table 1, Gram Positive. Summed up: as §1
The subject of the next test is S.salivarius. As to the kind of experiment: MIC microdilution, gram positive. The format is cell-based, Streptococcus salivarius. The settings on record: Streptococcus salivarius; Table 1, Gram Positive. Summed up:
as §1

The subject of another test is A. viscosus. As to the kind of experiment: MIC microdilution, gram positive. The format is cell-based, Actinomyces viscosus. The settings on record: Actinomyces viscosus; Table 2, Gram Positive. A digest of the protocol:
as §1

For the next test, the system named is Lact 7496. As to the kind of experiment: MIC microdilution, gram positive. The format is cell-based, Lactobacillus rhamnosus (casei). The following applies: Lacticaseibacillus rhamnosus, 7496; Table 2, Gram Positive. How it is done:
as §2

The subject of the next test is S. aureus. As to the kind of experiment: MIC microdilution, gram positive. The following applies: for MIC: Staphylococcus aureus. The format is cell-based, Staphlococcus aureus. A digest of the protocol: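 Broth microdilution (modified NCCLS M7-A4): BHI for aerobes, supplemented half-strength BHI under 5% CO2/10% H2/N2 for anaerobes; 10 μL of ~1×10^8 CFU/mL inoculum; drugs 50 to 0.05 μg/assay from DMSO stock. Duplicates incubated 24–48 h; MIC = lowest concentration without visible growth. Staphylococcus R: coagulase-negative clinical isolate 00-045-1209.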

Molecules are shown by their SMILES. Values after ≈ are worked out from the molar mass of the structure shown.

The term MIC denotes the smallest concentration in the dilution series that meets the test's criterion for growth inhibition. A high value points to a need for much substance. Regarding `CCCCc1ccc(C(=O)c2ccc(O)c(C(=O)Nc3cccc(C(F)(F)F)c3)c2)cc1` [BBAmF, reference compound], the MIC against S. species R is above 50 µg/mL; against S. mutans it was above 50 µg/mL; with B. fragilis, above 50 µg/mL; against M. luteus, 3.1 µg/mL (≈ 7.02 µM); with S. sanguis, above 50 µg/mL; against S.salivarius, above 50 µg/mL. In addition, the MIC was above 50 µg/mL in the test with A. viscosus; 6.3 µg/mL (≈ 14.3 µM) against Lact 7496; above 50 µg/mL in the test on S. aureus (Table 2, Gram Positive). The “MIC B. fragilis” value in the test with B. fragilis is reported as “NE (NE indicates that the drug was not effective at a concentration >50 micrograms/ml)”. Moreover, the “MIC S. aureus” value with S. aureus (second Table 5 (Example 5)) is reported as “NE (NE indicates that the drug was not effective at a concentration >50 micrograms/ml)”.
Regarding `N#Cc1cccc(NC(=O)c2cc(C(=O)c3ccc(-c4ccccc4)cc3)ccc2O)c1` [BPAmC, reference compound], the minimum inhibitory concentration (MIC) is above 50 µg/mL with S. species R; above 50 µg/mL against S. mutans; 50 µg/mL (≈ 119 µM) in the test on B. fragilis; 3.1 µg/mL (≈ 7.41 µM) with M. luteus; above 50 µg/mL against S. sanguis; above 50 µg/mL against S.salivarius. Moreover, the MIC was above 50 µg/mL against A. viscosus; 12.5 µg/mL (≈ 29.9 µM) against Lact 7496; above 50 µg/mL with S. aureus (Table 2, Gram Positive). Further, the “MIC B. fragilis” value with B. fragilis turned out to be 50 micrograms/ml. In addition, the “MIC S. aureus” value with S. aureus (second Table 5 (Example 5)) is given as “NE (NE indicates that the drug was not effective at a concentration >50 micrograms/ml)”.
With `O=C(c1ccc(-c2ccccc2)cc1)c1ccc(O)c(C(=O)Nc2cccc(C(F)(F)F)c2)c1` [BPAmF, reference compound], the MIC with S. species R was above 50 µg/mL; in the test on S. mutans it was above 50 µg/mL; against B. fragilis, 50 µg/mL (≈ 108 µM); against M. luteus it was 3.1 µg/mL (≈ 6.72 µM); against S. sanguis, above 50 µg/mL; in the test with S.salivarius it was above 50 µg/mL. The MIC in the test with A. viscosus was above 50 µg/mL; in the test on Lact 7496 it was 6.3 µg/mL (≈ 13.7 µM); with S. aureus (Table 2, Gram Positive) it was above 50 µg/mL. Besides, the “MIC B. fragilis” value against B. fragilis is recorded as 50 micrograms/ml. Also, the “MIC S. aureus” value in the test with S. aureus (second Table 5 (Example 5)) was “NE (NE indicates that the drug was not effective at a concentration >50 micrograms/ml)”.
For `N#Cc1cccc(NC(=O)c2cc(C(=O)c3cccc4ccccc34)ccc2O)c1` [NA1mC], the minimum inhibitory concentration (MIC) against S. species R is 25 µg/mL (≈ 63.7 µM); against S. mutans, 3.1 µg/mL (≈ 7.9 µM); against B. fragilis, above 50 µg/mL; in the test with M. luteus, 3.1 µg/mL (≈ 7.9 µM); against S. sanguis, 6.3 µg/mL (≈ 16.1 µM); in the test with S.salivarius, 50 µg/mL (≈ 127 µM). Besides, the minimal inhibitory concentration (MIC) against A. viscosus amounted to 3.2 µg/mL (≈ 8.15 µM); against Lact 7496 it was 3.1 µg/mL (≈ 7.9 µM); in the test on S. aureus (second Table 5 (Example 5)) it was 12.5 µg/mL (≈ 31.9 µM). For the same compound, the “MIC B. fragilis” value in the test on B. fragilis is “NE (NE indicates that the drug was not effective at a concentration >50 micrograms/ml)”.
On to `O=C(Nc1cccc(C(F)(F)F)c1)c1cc(C(=O)c2cccc3ccccc23)ccc1O` [NA1mF], for which the minimum inhibitory concentration (MIC) was 1.6 µg/mL (≈ 3.67 µM) against S. species R; 0.8 µg/mL (≈ 1.84 µM) against S. mutans; 3.1 µg/mL (≈ 7.12 µM) in the test on B. fragilis; 0.8 µg/mL (≈ 1.84 µM) in the test with M. luteus; 0.8 µg/mL (≈ 1.84 µM) with S. sanguis; 3.1 µg/mL (≈ 7.12 µM) against S.salivarius. The results for the MIC in the test on A. viscosus, in the test with Lact 7496 and against S. aureus (second Table 5 (Example 5)) were below 0.1 µg/mL, 0.4 µg/mL (≈ 0.919 µM) and 3.1 µg/mL (≈ 7.12 µM), respectively. Further, in the test on S. species R (statement in text referring to Table 5), the “sensitivity of staphylococcus species R to the compounds” value is reported as “highest effect”. In addition, the “MIC B. fragilis” value in the test on B. fragilis was 3.1 micrograms/ml.
